The source of these data is patent US20080306098A1, “Pharmacokinetics of protease inhibitors and other drugs” (priority 2006, published 2008).

Broadly, the half-life is the time needed for the level to fall by half in the phase considered.

The target in data set [1] is T1, CYP3a4 (Homo sapiens, UniProt P08684).
T1 construct: purchased Invitrogen (Carlsbad, Calif.)
The data set is described as follows: Fluorescence-based CYP3a4 assay (Invitrogen VIVID probes), with or without recombinant human FKBP. In kind it is in vitro ADME. From the text:
An amyloid ligand, curcumin, is known to be a good substrate for CYP3a4 (a common P450 enzyme). We investigated whether conjugates between curcumin and FK506 would also be substrates for the enzyme. To test this possibility, we utilized a well-known fluorescence-based CYP3a4 assay. This assay, marketed by Invitrogen (Carlsbad, Calif.), under the name VIVID probes, relies on cytochrome-mediated production of a fluorescent marker from a model substrate. When a compound, such as curcumin, binds to the P450, it displaces the substrate and reduces the rate of production of the fluorescent product. […] However, when we supplied a source of human FKBP (in this case, recombinant bacterially-expressed protein), we observed very different results as shown in FIG. 3. […] It is believed that FKBP protects the curcumin conjugates from degradation by sterically hindering CYP3a4 binding. In the presence of cellular FKBP sources, this effect would be predicted to be increased because the compartmentalization of the conjugate further reduces availability to P450 enzymes.

For data set [2] the following is noted: unmodified drug; cited from earlier work.
The conditions of data set [3]: non-transplant patients; cited from earlier work.
The conditions of data set [4]: in vivo; cited from earlier work.

Molecules are shown by their SMILES. Where two headings read alike, the source gives them in different places.

T1 sequence (P08684 whole entry): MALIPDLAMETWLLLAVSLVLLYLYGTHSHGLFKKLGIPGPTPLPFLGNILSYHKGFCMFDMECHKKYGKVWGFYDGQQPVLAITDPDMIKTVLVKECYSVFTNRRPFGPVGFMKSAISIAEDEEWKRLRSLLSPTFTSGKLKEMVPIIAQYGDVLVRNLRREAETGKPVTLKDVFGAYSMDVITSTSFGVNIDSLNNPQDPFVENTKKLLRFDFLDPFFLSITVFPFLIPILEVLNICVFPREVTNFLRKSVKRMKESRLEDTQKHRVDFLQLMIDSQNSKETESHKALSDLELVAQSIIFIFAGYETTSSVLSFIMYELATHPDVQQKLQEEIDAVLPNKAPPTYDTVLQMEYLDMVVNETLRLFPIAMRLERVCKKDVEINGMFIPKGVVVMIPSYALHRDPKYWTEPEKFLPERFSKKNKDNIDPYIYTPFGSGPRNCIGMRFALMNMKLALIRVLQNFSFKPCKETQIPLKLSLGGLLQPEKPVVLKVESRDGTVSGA

`COc1cc(/C=C/C(=O)CC(=O)/C=C/c2ccc(O)c(OC)c2)ccc1O` [curcumin]: the “protection from degradation by CYP3a4” value in data set [1] (in the presence of recombinant human FKBP) is “unable to protect”. Also, the “substrate for CYP3a4” value in data set [1] (without FKBP) was “good substrates”.
`CN(Cc1cnc2nc(N)nc(N)c2n1)c1ccc(C(=O)N[C@@H](CCC(=O)O)C(=O)O)cc1` [methotrexate]: the half-life in data set [2] was 6 h.
As for `C=CC[C@@H]1/C=C(\C)C[C@H](C)C[C@H](OC)[C@H]2O[C@@](O)(C(=O)C(=O)N3CCCC[C@H]3C(=O)O[C@H](/C(C)=C/[C@@H]3CC[C@@H](O)[C@H](OC)C3)[C@H](C)[C@@H](O)CC1=O)[C@H](C)C[C@@H]2OC` [FK506, FK506 (tacrolimus)], the half-life in data set [3] was 21 h. The “distribution into protected cellular compartments (in the blood)” value in data set [4] was 72-98%.
